Reference: PMC9653339, “Revisiting the anticancer properties of phosphane(9-ribosylpurine-6-thiolato)gold(I) complexes and their 9H-purine precursors” (Journal of Biological Inorganic Chemistry, 2022)

Tests used:
[1] = system: human adult dermal fibroblasts HDFa; test: MTT cell viability assay, HDFa; format: cell-based; settings: 72 h, non-malignant fibroblasts
Procedure: (§1) All complexes stable in solution were investigated for their anti-proliferative effect on nine human cancer cell lines, using the MTT-based cell viability assay. Cells were seeded in 96-well microtiter plates (Sarstedt) with a cell density of 0.05 × 10^6 cells per ml and 100 µL per well and incubated for 24 h. A dilution series of test compounds was added to the wells, ranging in twelve steps from 100 µM to 5 nM. As a control, equal amounts of DMSO were added. Treated cells were further incubated for 72 h. Then, 12.5 µL per well of MTT solution (0.05% in phosphate-buffered saline (PBS)) was added, followed by another 2 h of incubation. The plates were centrifuged, the medium was discarded and 25 µL per well of SDS solution in DMSO (10% SDS, 0.6% AcOH in DMSO) was added to dissolve the formazan. The plates were incubated for a further hour. Absorbances at 570 nm and 630 nm were measured using a plate reader (Tecan). Background absorbance (630 nm) was subtracted from the formazan signal (570 nm). The resulting absorbance was directly proportional to the amount of viable cells. The control was normalized to 100% viable cells and viability of cells treated with test compounds was calculated accordingly. IC50 values were calculated based on a sigmoidal fit model using GraphPad Prism. Means and SD were calculated from at least four independent experiments.

[2] = system: HCT-116^p53−/− (p53 knockout mutant) colon carcinoma cells; test: MTT cell viability assay, HCT-116 p53-/-; format: cell-based, human; settings: 72 h
Procedure: as §1, with “Cells” for “All complexes stable in solution were investigated for their anti-proliferative effect on nine human cancer cell lines, using the MTT-based cell viability assay. Cells”

EA.hy926 cells = test: Tube formation assay; format: cell-based, human; settings: 5 µM (CA-4 0.01 µM)
Procedure: EA.hy926 cells were cultured overnight in endothelial medium (37 °C, 95% humidity, 5% CO2) instead of DMEM. In addition, Matrigel was thawed on ice in the refrigerator. Pipette tips and 96-well plates were stored at − 20 °C overnight. The next day, 30 µL of Matrigel was added to each well bubble-free and the well plate was incubated for approximately 45 min (37 °C, 95% humidity, 5% CO2). Subsequently, 100 µL of cell suspension was added to each well at a concentration of 0.4–0.5 × 10^6 cells/mL onto the Matrigel-treated wells and the substances were added in tenfold pre-dilution. This was followed by incubation for approximately 6 h, until tubes formed in the negative control with DMSO. At this point, documentation under the microscope took place.

[3] = system: HCT-116^wt colon carcinoma cells; test: MTT cell viability assay, HCT-116wt; format: cell-based, human; settings: 72 h
Procedure: as §1, with “Cells” for “All complexes stable in solution were investigated for their anti-proliferative effect on nine human cancer cell lines, using the MTT-based cell viability assay. Cells”

[4] = system: EA.hy926 endothelial hybrid cells; test: MTT cell viability assay, EA.hy926; format: cell-based, human; settings: 72 h
Procedure: as §1

[5] = system: HeLa cervix carcinoma cells; test: MTT cell viability assay, HeLa; format: cell-based, human; settings: 72 h
Procedure: as §1

518A2 melanoma cells = test: MTT cell viability assay, 518A2; format: cell-based, human; settings: 72 h
Procedure: as §1

[6] = system: MCF-7 mamma carcinoma cells; test: MTT cell viability assay, MCF-7; format: cell-based, human; settings: 72 h, read-out: IC50 MCF7
Procedure: as §1

U-87 glioblastoma cells = test: MTT cell viability assay, U-87; format: cell-based, human; settings: 72 h
Procedure: as §1

[7] = system: mdr KB-V1^Vbl cervix carcinoma cells; test: MTT cell viability assay, KB-V1 (with and without verapamil); format: cell-based, human; settings: 72 h, without verapamil
Procedure: as §1

[8] = system: mdr MCF-7^Topo mamma carcinoma cells; test: MTT cell viability assay, MCF-7Topo; format: cell-based, human; settings: 72 h, read-out: IC50 MCF7^Topo
Procedure: as §1

[9] = system: HT-29 colon carcinoma cells; test: MTT cell viability assay, HT-29; format: cell-based, human; settings: 72 h
Procedure: as §1

[10] = Stability by NMR in DMSO-d6 + 5% D2O; format: physicochemical; settings: for Stability (31P NMR): DMSO-d6 with additional D2O, three days
Text: In a further corroboration of the complex stability, the similarity of the chalcogens sulfur and selenium was exploited. The selenolato complex 10 was synthesized and examined for its stability under identical conditions. Since ^77Se is a 1/2 spin nucleus with roughly 8% natural abundance, its compounds can be investigated directly. Depending on whether a break in the Se–Au or the Au–PR3 bond would occur, the shift would change by several hundred ppm and serve as unequivocal evidence. […] In addition, we investigated the stability of complexes 1 and 5 as representatives of the series of purines and purine nucleosides, respectively, in cell culture medium by UV/Vis spectroscopy.

[11] = system: caspase 3/7 in 518A2 melanoma cells; test: Caspase 3/7 activation; format: cell-based, human; settings: 518A2 cells, 10 µM, 6 h
Procedure: The assay was conducted, following manufacturer’s instructions using the Cell Meter Caspase 3/7 activity apoptosis assay kit (AAT Bioquest). Briefly, 518A2 melanoma cells were seeded in 96-well flat black microtiter plates with a density of 0.22 × 10^6 cells per mL and 90 µL per well. After 24 h of incubation, 10 µL per well of tenfold diluted test compounds was added, and the cells were incubated for a further 6 h. Subsequently, 100 µL per well of Caspase 3/7 substrate working solution was added and incubated for 1 h in the dark at room temperature. The fluorescence was measured using a micro-plate reader (Tecan) at ex/em = 490/525 nm.

Compound | IC50 [1] [µM] | IC50 [2] [µM] | Inhibition of tube formation (EA.hy926 cells) | IC50 [3] [µM] | IC50 [4] [µM] | IC50 [5] [µM] | IC50 (518A2 melanoma cells) [µM] | IC50 [6] [µM] | IC50 (U-87 glioblastoma cells) [µM] | IC50 [7] [µM] | IC50 [8] [µM] | IC50 [9] [µM] | Stability (31P NMR) [10] | Caspase 3/7 activity [11] | Stability (77Se NMR) ([10]; DMSO-d6 + 5% D2O, identical conditions)
CSc1ncnc2c1ncn2[C@@H]1O[C@H](CO)[C@@H](O)[C@H]1O [6-MMR, 6-methylmercaptopurine riboside, reference compound] | 5.8 ± 0.46 | 0.05 ± 0.001 | inhibitory effects | 0.1 ± 0.008 | 0.11 ± 0.001 | 0.0056 ± 0.0003 | 1.4 ± 0.12 | 0.09 ± 0.003 |  |  |  |  |  |  | 
COc1ccc(/C=C\c2cc(OC)c(OC)c(OC)c2)cc1O [CA-4, combretastatin A-4] |  |  | Complete inhibition of tube formation |  |  |  |  |  |  |  |  |  |  |  | 
c1ccc([PH]([Au][S]c2ncnc3[nH]cnc23)(c2ccccc2)c2ccccc2)cc1 [Complex 1, (1,7-Dihydro-6H-purine-6-thiolato) (triphenylphosphane) gold(I)] |  | 1.7 ± 0.3 |  | 4.9 ± 1 | 2.9 ± 0.7 | 2.6 ± 0.04 | 8 ± 0.71 | 13 ± 1.12 | 0.91 ± 0.09 | 1.9 ± 0.1 | 6.6 ± 0.65 | 8 ± 0.73 |  |  | 
Nc1nc([S][Au][PH](c2ccccc2)(c2ccccc2)c2ccccc2)c2nc[nH]c2n1 [Complex 2, (2-Amino-1,7-dihydro-6H-purine-6-thiolato) (triphenylphosphane) gold(I)] |  | 0.58 ± 0.01 |  | 0.8 ± 0.01 | 0.5 ± 0.1 | 0.6 ± 0.05 | 4.4 ± 0.33 | 2.2 ± 0.13 | 1 ± 0.1 | 0.3 ± 0.07 | 3.7 ± 0.37 | 4.4 ± 0.32 |  |  | 
CC[PH](CC)(CC)[Au][S]c1ncnc2[nH]cnc12 [Complex 3, (1,7-Dihydro-6H-purine-6-thiolato) (triethylphosphane) gold(I)] |  | 3.6 ± 0.8 |  | 6.3 ± 0.3 | 1.5 ± 0.11 | 6.8 ± 0.62 | 8.4 ± 0.62 | 9.4 ± 0.53 | 6.9 ± 0.47 | 2.5 ± 0.32 | 10 ± 0.26 | 6.4 ± 1.4 |  |  | 
CC[PH](CC)(CC)[Au][S]c1nc(N)nc2[nH]cnc12 [Complex 4, (2-Amino-1,7-dihydro-6H-purine-6-thiolato) (triethylphosphane) gold(I)] |  | 11 ± 0.5 |  | 25 ± 3.1 | 1.1 ± 0.08 | 15 ± 4.1 | 16 ± 0.91 | 21 ± 3.4 | 7 ± 0.66 | 12 ± 1 | 4.9 ± 0.43 | 5.8 ± 1.7 | did not change noticeably |  | 
CC[PH](CC)(CC)[Au][S]c1ncnc2c1ncn2[C@@H]1O[C@H](CO)[C@@H](O)[C@H]1O [Complex 7, (1,7-Dihydro-6H-purine-9-β-D-ribofuranosyl-6-thiolato) (triethylphosphane) gold(I)] | 7 ± 0.62 | 0.5 ± 0.03 |  | 1.6 ± 0.2 | 0.43 ± 0.02 | 0.51 ± 0.05 | 3 ± 0.21 | 2.1 ± 0.2 | 1.1 ± 0.11 | 0.4 ± 0.04 | 1.2 ± 0.11 | 2.2 ± 0.17 | did not change noticeably | even exceeded the effects of the three controls | 
CC[PH](CC)(CC)[Au][S]c1nc(N)nc2c1ncn2[C@@H]1O[C@H](CO)[C@@H](O)[C@H]1O [Complex 8, (2-Amino-1,7-dihydro-6H-purine-9-β-D-ribofuranosyl-6-thiolato) (triethylphosphane) gold(I)] | 7 ± 0.7 | 1.8 ± 0.06 |  | 5.5 ± 0.3 | 1.7 ± 0.14 | 2.4 ± 0.21 | 3.4 ± 0.33 | 10 ± 0.83 | 1 ± 0.03 | 0.7 ± 0.07 | 3.6 ± 0.34 | 4.5 ± 0.34 |  |  | 
CC[PH](CC)(CC)[Au][S]c1nc([S][Au][PH](CC)(CC)CC)c2nc[nH]c2n1 [Complex 9, (1,7-Dihydro-6H-purine-2,6-bisthiolato) (triethylphosphane) gold(I)] |  | 3.7 ± 0.35 |  | 11.2 ± 0.78 |  | 17.6 ± 0.8 | 13.4 ± 1.2 |  |  |  |  | 11.1 ± 0.32 |  |  | 
CC[PH](CC)(CC)[Au][Se]c1ncnc2[nH]cnc12 [Complex 10, (1,7-Dihydro-6H-purine-6-selenolato) (triethylphosphane) gold(I)] |  |  |  |  |  |  |  |  |  |  |  |  |  |  | no change in the shift of the ^77Se NMR signal
